Data as given in patent US20220133894A1, “BISPHOSPHONATE-LINKED COMPOUNDS” (OREGON HEALTH & SCIENCE UNIVERSITY, priority 2019, published 2022).

System: RAW 267.4 cells
Assay: Osteoclast morphology and maturation (actin/DAPI immunofluorescence, TRAP staining)
Type: cell-based, mouse
From the text: Treatment of RAW 267.4 cells with KBU2046 induces several structural and functional changes. It reduces RANKL-mediated formation of multinucleated cells, and those that do form have lower numbers of nuclei (see 40× panels, FIG. 4B). The characteristic prominent actin ring (white arrow) surrounding the resorptive cavity (yellow arrow) is readily apparent in control cells treated with RANKL ligand, but is lacking in KBU2046-treated cells (100×, panels). Consistent with it inhibiting maturation of RAW 267.4 cells, TRAP staining is decreased in KBU2046-treated cells (FIG. 4C).
FIG. 4 represents the KBU2046 inhibition of osteoclast function. FIG. 4A compares effects on Raf1 activation. RAW 267.4 cells were treated with RANKL for 4 days, treated with 10 μM KBU2046 for the indicated time periods, and Western blot for the denoted proteins performed. (B) Effects on cell morphology. RAW 267.4 cells were treated with RANKL and with KBU2046 for 4 days, or not, and denoted, and stained for actin (green) and DAPI (blue); white arrow denotes an actin ring, yellow arrow a resorptive cavity. Representative immunofluorescent images are depicted. (C) Tartrate resistant acid phosphatase (TRAP) expression. Cells were treated as in B, stained for TRAP (denoted by presence of red), and representative images from light microscopy depicted. (D) Bone degradation. RAW 267.4 cells were plated onto Osteo Assay plates, treated with RANKL for 6 days and with KBU2046 (or vehicle for controls) as indicated and bone surface area quantified. Data are the mean±SEM (N=3 replicates) of bone surface area, expressed as the percentage of control cells; * denotes P<0.05 compared to control.
Raw 264.7 cells were grown in differentiation medium (described below), with or without KBU2046, for 4 days on a Chamber Slide (Nunc Lab-Tek). Chambers were washed once with PBS, followed by 10-minute fixation in cold 10% neutral-buffered formalin (VWR) and a post-fixation wash with PBS. […] The cells were then incubated for 2 hours at 4° C. in Dylight Phallodin (Cell Signaling technology, #12935) antibody diluted 1:40 in 1×PBS with 1% BSA and 0.3% Triton X-100. Subsequently, the slide was washed once with PBS, a coverslip mounted with ProLong Gold Antifade Reagent with DAPI (Cell Signaling Technology, #8961), and imaged on a Confocal Microscope (Nikon/Yokogawa Spinning Disc).

Compound: O=C1c2ccccc2OCC1c1ccc(F)cc1 (stereo not shown) [KBU2046, 3-(4-fluorophenyl)chroman-4-one]
- RANKL-mediated formation of multinucleated cells (RANKL and KBU2046 for 4 days): reduces
- TRAP staining (RANKL and KBU2046 for 4 days): decreased
- actin ring surrounding the resorptive cavity (RANKL and KBU2046 for 4 days): lacking
- cellular extensions of undifferentiated cells (absence of RANKL): markedly reduces
